Several values for one entry are separate records, joined by “and”; a condition that tells them apart may be missing. Equal values may be shown once.
What was measured:
[1] = system: CHO cells expressing huTNFR-Fc; experiment: Cell concentration and viability (hemacytometer, trypan blue dye exclusion) of cultures expressing huTNFR-Fc with inducing agents; assay type: cell-based, Chinese Hamster; details: day 5, 31° C.
Description: (§1) A second experiment was performed to test the effects of sodium orthovanadate on specific production of the recombinant polypeptide huTNFR-Fc, expressed from cells when compared to the same cells grown without vanadate. Flasks were inoculated at 2×10^6 cells/ml and were either grown without additional compounds or with sodium butyrate at 0.5 mM or sodium butyrate with sodium orthovanadate at 20 μM. Flasks were set up in an incubator at 31° C. Measurements for cell concentration and viability were taken using a hemacytometer and the trypan blue dye exclusion method and the results are shown in Table 2. Production of huTNFR-Fc was measured by standard ELISA.

[2] = system: CHO cells expressing huTNFR-Fc; experiment: Production of huTNFR-Fc measured by standard ELISA; assay type: cell-based, Chinese Hamster; details: NaButyrate 0.5 mM, culture without inducing agent normalized to 100%
Description: as §1

[3] = system: Chinese Hamster Ovary (CHO) cell line genetically engineered to produce huTNFR:Fc; experiment: Dose response of vanadate in shake flask cultures (viable cell density, viability); assay type: cell-based; details: day 5, shake flask, serum-free medium
Description: In this experiment, the effect of adding various concentrations of vanadate was tested in mammalian cell shake flask cultures. A Chinese Hamster Ovary (CHO) cell line that had been genetically engineered to produce huTNFR:Fc (a soluble form of the human tumor necrosis factor alpha receptor extracellular domain fused to an Fc polypeptide from an immunogolublin see in U.S. Pat. No. 5,945,397) was grown in serum-free medium. A dose response analysis was performed to determine an optimal dose for vanadate.

[4] = system: recombinant cell culture (expressing huTNFR-Fc); experiment: Bioreactor culture (balanced feed experiment) with reduced IGF-1 plus vanadate, FIG. 1; assay type: cell-based; details: 25 µg/L IGF-1 with 20 μM sodium orthovanadate compared to 100 µg/L IGF-1 without vanadate
Description: FIG. 1. Addition of sodium orthovanadate to a recombinant cell culture (expressing huTNFR-Fc) reduces the requirement for IGF-1 to maintain viability in a balanced feed experiment. […]
(§2) Vanadate can also reduce the requirement for growth factors to maintain recombinant cell viability. […] At 5 ng/L with vanadate, IGF-1 is sufficient to maintain the same viability of recombinant polypeptide producing cells as 100 μg/L IGF-1 in the absence of vanadate.
The results from these experiments show how adding vanadate, in this case orthovanadate, can be applied in mammalian cell culture for a number of purposes. Cell viability is increased in cultures having 20 μM orthovanadate compared to cells grown without orthovanadate over a five day period (FIG. 1). In short, adding vanadate, such as orthovanadate, helps to create a more efficient mammalian cell culture process by reducing cell death, reducing the requirement of growth factors in the cell culture and increasing secreted polypeptide production.

Recombinant CHO Cells = experiment: Effect of vanadate and reduced IGF-1 on recombinant CHO cells; assay type: cell-based, Chinese Hamster; design: cells/ml: scale not given here
Description: as §2

[5] = with sodium orthovanadate (+), IGF-1 5 ng/L
[6] = with sodium orthovanadate (+), IGF-1 100 μg/L
[7] = IGF-1 5 ng/L, without sodium orthovanadate (−)
[8] = IGF-1 100 μg/L, without sodium orthovanadate (−)

CCCC(=O)[O-].[Na+] [NaButyrate, sodium butyrate]
% Viability ([1]; NaButyrate 0.5 mM): 78%
VCD, ×10^6 ([1]; NaButyrate 0.5 mM): 5.547 ×10^6 and 5.067 ×10^6
Specific Productivity [2]: 161% and 153%
Titer [2]: 140% and 125%

[Na+].[Na+].[Na+].[O]=[V]([O-])([O-])[O-] [Vanadate, sodium orthovanadate]
% Viability ([1]; sodium butyrate 0.5 mM with sodium orthovanadate 20 μM (0.02 mM)): 95%
% Viability ([3]; 10 uM vanadate): 80% and 89%
VCD, ×10^6 ([3]; 10 uM vanadate): 5.102 ×10^6 and 6.796 ×10^6
% Viability ([3]; 20 uM vanadate): 90%
VCD, ×10^6 ([3]; 20 uM vanadate): 5.8 ×10^6
% Viability ([3]; 35 uM vanadate): 87% and 90%
VCD, ×10^6 ([3]; 35 uM vanadate): 5.142 ×10^6 and 5.184 ×10^6
% Viability ([3]; 50 uM vanadate): 83% and 81%
VCD, ×10^6 ([3]; 50 uM vanadate): 4.136 ×10^6 and 3.625 ×10^6
cell viability ([4]; after four days): improved
cell survival ([4]; after six days): markedly more cell survival
% viable (Recombinant CHO Cells; [5]): 73%
cells/ml (Recombinant CHO Cells; [5]): 4.916 cells/ml
% viable (Recombinant CHO Cells; [6]): 90%
cells/ml (Recombinant CHO Cells; [6]): 6.806 cells/ml

IGF-1: insulin like growth factor (IGF-1), growth factor added to the medium
% viable (Recombinant CHO Cells; [7]): 58%
cells/ml (Recombinant CHO Cells; [7]): 3.936 cells/ml
% viable (Recombinant CHO Cells; [8]): 74%
cells/ml (Recombinant CHO Cells; [8]): 5.825 cells/ml

Reference: patent publication US6974681B1, “Cell culture performance with vanadate” (Immunex Corporation, priority 2002, dated 2005)
